Assay results taken from patent US10253039B2, “Inhibitors of bacterial DNA gyrase with efficacy against gram-negative bacteria” (priority 2014, dated 2019).
≈ marks a conversion by molar mass, not a printed value. Like-named read-outs stand apart in the source and are kept apart here.

Key:
Assay type in all cases: cell-based
[1] = system: Morganella morganii subsp. morganii; test: MIC, 20-strain panel; details: Morganella morganii
Summary of the method: (§1)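 Broth microdilution per CLSI, 2-fold serial dilutions in Luria-Bertani medium with a 1:10000 inoculum from a growing subculture. Plates shaken at 37 °C for 16-18 h; MIC taken as lowest concentration showing no visible turbidity.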

Streptococcus agalactiae = test: MIC, 20-strain panel
Summary of the method: as §1

E. coli JW5503 (deltolC) = test: MIC, 20-strain panel; details: Escherichia coli
Summary of the method: as §1

Streptococcus pyogenes = test: MIC, 20-strain panel
Summary of the method: as §1

[2] = system: Klebsiella pneumoniae subsp. pneumoniae; test: MIC, 20-strain panel
Summary of the method: as §1

[3] = system: Staphylococcus epidermidis; test: MIC, 20-strain panel
Summary of the method: as §1

[4] = system: Salmonella enterica subsp. enterica typhimurium; test: MIC, 20-strain panel
Summary of the method: as §1

Shigella flexneri = test: MIC, 20-strain panel
Summary of the method: as §1

E. coli MG1655 = test: MIC, 20-strain panel; details: Escherichia coli, read-out: MIC
Summary of the method: as §1

[5] = system: Staphylococcus aureus subsp. aureus; test: MIC, 20-strain panel; details: read-out: MIC
Summary of the method: as §1

[6] = system: Staphylococcus saprophyticus subsp. saprophyticus; test: MIC, 20-strain panel
Summary of the method: as §1

Enterobacter aerogenes = test: MIC, microdilution in 96-well plates; details: Klebsiella aerogenes
Summary of the method: as §1

Edwardsiella tarda = test: MIC, microdilution in 96-well plates
Summary of the method: as §1

E. coli BW25113 = test: MIC, microdilution in 96-well plates; details: Escherichia coli, read-out: MIC
Summary of the method: as §1

Pseudomonas aeruginosa = test: MIC, microdilution in 96-well plates
Summary of the method: as §1

Acinetobacter baumannii = test: MIC, microdilution in 96-well plates
Summary of the method: as §1

[7] = Table 7, separate set of experiments
[8] = Klebsiella pneumoniae subsp. pneumoniae
[9] = Salmonella enterica subsp. enterica Typhimurium
[10] = Staphylococcus aureus subsp. aureus

| SMILES | MIC (Streptococcus agalactiae) [µg/mL] | MIC (Streptococcus pyogenes) [µg/mL] | MIC [3] [µg/mL] | MIC [6] [µg/mL] | MIC (E. coli JW5503 (deltolC); E. coli JW5503 (deltolC)) [µg/mL] | MIC [2, 8] [µg/mL] | MIC [4, 9] [µg/mL] | MIC (Shigella flexneri) [µg/mL] | MIC (E. coli MG1655; MG1655, E. coli MG1655) [µg/mL] | MIC [5, 10] [µg/mL] | MIC (Edwardsiella tarda) [µg/mL] | MIC (E. coli BW25113; BW25113, E. coli BW25113) [µg/mL] | further results |
| --- | --- | --- | --- | --- | --- | --- | --- | --- | --- | --- | --- | --- | --- |
| N#Cc1ccc(Cl)c(S(=O)(=O)N[C@@H]2CCN(Cc3ccc(OC4CC4)cc3)C2)c1 [Compound 77] | > 8 | > 8 | > 8 | > 8 | – | – | – | – | – | – | – | – | MIC [1]: > 16 µg/mL; MIC (E. coli JW5503 (deltolC); C: E. coli JW5503 (deltolC)): 0.125 µg/mL (≈ 0.289 µM); MIC (E. coli JW5503 (deltolC); E. coli JW5503 (deltolC), Table 7, separate set of experiments): 0.125 µg/mL (≈ 0.289 µM); MIC ([2]; E: Klebsiella pneumoniae subsp. pneumoniae): ~8 µg/mL (≈ 18.5 µM); MIC ([2]; Klebsiella pneumoniae subsp. pneumoniae, Table 7, separate set of experiments): > 16 µg/mL; MIC ([4]; F: Salmonella enterica subsp. enterica Typhimurium): 1 µg/mL (≈ 2.32 µM); MIC ([4]; Salmonella enterica subsp. enterica typhimurium, Table 7, separate set of experiments): 2 µg/mL (≈ 4.63 µM); MIC (Shigella flexneri; G: Shigella flexneri): 4 µg/mL (≈ 9.26 µM); MIC (Shigella flexneri; [7]): 4 µg/mL (≈ 9.26 µM); MIC (E. coli MG1655; MG1655, A: E. coli MG1655): 8 µg/mL (≈ 18.5 µM); MIC (E. coli MG1655; MG1655, E. coli MG1655, Table 7, separate set of experiments): 16 µg/mL (≈ 37 µM); MIC ([5]; H: Staphylococcus aureus subsp. aureus): > 8 µg/mL; MIC (Enterobacter aerogenes): > 16 µg/mL; MIC (Edwardsiella tarda; D: Edwardsiella tarda): 8 µg/mL (≈ 18.5 µM); MIC (Edwardsiella tarda; [7]): 16 µg/mL (≈ 37 µM); MIC (E. coli BW25113; BW25113, B: E. coli BW25113): 8 µg/mL (≈ 18.5 µM); MIC (E. coli BW25113; BW25113, E. coli BW25113, Table 7, separate set of experiments): 8 µg/mL (≈ 18.5 µM); MIC (Pseudomonas aeruginosa): > 16 µg/mL; MIC (Acinetobacter baumannii): > 16 µg/mL |
| CC(C)Oc1ccc(CN2CC[C@@H](NS(=O)(=O)c3cnc4ccsc4c3)C2)cc1 [Compound 164] | > 8 | > 8 | > 8 | > 8 | > 8 | > 8 | > 8 | > 8 | > 8 | > 8 | > 8 | > 8 | – |
| CC(C)Oc1ccc(CN2CC[C@@H](NS(=O)(=O)c3ccc(F)c(C#N)c3)C2)cc1 [Compound 165] | > 8 | > 8 | > 8 | > 8 | 4 (≈ 9.58 µM) | > 8 | > 8 | > 8 | > 8 | > 8 | > 8 | > 8 | – |
| N#Cc1cc(S(=O)(=O)N[C@@H]2CCN(Cc3ccc(OC4CC4)cc3)C2)ccc1F [Compound 166] | > 8 | > 8 | > 8 | > 8 | 2 (≈ 4.81 µM) | > 8 | ~8 (≈ 19.3 µM) | > 8 | > 8 | > 8 | > 8 | > 8 | – |
| CC(C)Oc1ccc(CN2CC[C@@H](NS(=O)(=O)c3cccnc3)C2)cc1 [Compound 167] | > 8 | > 8 | > 8 | > 8 | > 8 | > 8 | > 8 | > 8 | > 8 | > 8 | > 8 | > 8 | – |
| O=S(=O)(N[C@@H]1CCN(Cc2ccc(OC3CC3)cc2)C1)c1cc(C(F)(F)F)ccc1F [Compound 168] | > 8 | > 8 | > 8 | > 8 | 0.25 (≈ 0.545 µM) | > 8 | ~8 (≈ 17.4 µM) | ~8 (≈ 17.4 µM) | > 8 | > 8 | > 8 | > 8 | – |
| O=S(=O)(N[C@@H]1CCN(Cc2ccc(OC3CC3)cc2)C1)c1cnccc1Cl [Compound 169] | > 8 | > 8 | > 8 | > 8 | > 8 | > 8 | > 8 | > 8 | > 8 | > 8 | > 8 | > 8 | – |
| Cn1ccc(-c2ccc(CN3CC[C@@H](NS(=O)(=O)c4cccc(C#N)c4)C3)cc2)n1 [Compound 170] | > 8 | > 8 | > 8 | > 8 | 2 (≈ 4.74 µM) | > 8 | > 8 | > 8 | > 8 | > 8 | > 8 | > 8 | – |
| Cn1ccc(-c2ccc(CN3CC[C@@H](NS(=O)(=O)c4cccc(C(F)(F)F)c4)C3)cc2)n1 [Compound 171] | > 8 | > 8 | > 8 | > 8 | 1 (≈ 2.15 µM) | > 8 | > 8 | > 8 | > 8 | > 8 | > 8 | > 8 | – |
| O=S(=O)(N[C@@H]1CCN(Cc2nc(-c3ccccc3)cs2)C1)c1cccc(C(F)(F)F)c1 [Compound 173] | > 8 | > 8 | > 8 | > 8 | > 8 | > 8 | > 8 | > 8 | > 8 | > 8 | > 8 | > 8 | – |
